Measured values taken from publication PMC5390315 (Scientific Reports, 2017).
Where two headings read alike, the source gives them in different places.

Columns and labels:
HeLa = experiment: Antiproliferative MTT assay, HeLa; type: cell-based, human; conditions: Homo sapiens, HeLa, 72 h, mean ± SE
Procedure: (§1) Human T-cell leukemia (Jurkat) and human B-cell leukemia (SEM and RS4;11) cells were grown in RPMI-1640 medium (Gibco, Milano, Italy). Breast adenocarcinoma (MCF-7), human cervix carcinoma (HeLa), human lung adenocarcinoma (A549) and human colon adenocarcinoma (HT-29) cells were grown in DMEM medium (Gibco, Milano, Italy), all supplemented with 115 units/mL penicillin G (Gibco, Milano, Italy), 115 μg/mL streptomycin (Invitrogen, Milano, Italy), and 10% fetal bovine serum (FBS; Invitrogen, Milano, Italy). Stock solutions (10 mM) of the different compounds were obtained by dissolving them in DMSO. Individual wells of a 96-well tissue culture microtiter plate were inoculated with 100 μL of complete medium containing 8 × 10^3 cells. The plates were incubated at 37 °C in a humidified 5% CO2 incubator for 18 h prior to the experiments. After medium removal, 100 μL of fresh medium containing the test compound at different concentrations was added to each well in triplicate and incubated at 37 °C for 72 h. The percentage of DMSO in the medium never exceeded 0.25%. This was also the maximum DMSO concentration in all cell-based assays described below.

HT-29 = experiment: Antiproliferative MTT assay, HT-29; type: cell-based, human; conditions: Homo sapiens, HT-29, 72 h, mean ± SE
Procedure: as §1

Jurkat = experiment: Antiproliferative MTT assay, Jurkat; type: cell-based, human; conditions: Homo sapiens, Jurkat, 72 h, mean ± SE
Procedure: as §1

RS 4;11 = experiment: Antiproliferative MTT assay, RS 4;11; type: cell-based, human; conditions: Homo sapiens, RS4-11, 72 h, mean ± SE
Procedure: as §1

[1] = tested on: PBL not stimulated with PHA; experiment: Cytotoxicity in resting peripheral blood lymphocytes; type: cell-based; conditions: Homo sapiens, Lymphocyte, 72 h, MTT, mean ± SEM, read-out: IC50 PBLresting
Procedure: Peripheral blood lymphocytes (PBL) from healthy donors were obtained from human peripheral blood (leucocyte rich plasma- buffy coats) from healthy volunteers using the Lymphoprep (Fresenius KABI Norge AS) gradient density centrifugation.
After extensive washing, cells were resuspended (1.0 × 10^6 cells/mL) in RPMI-1640 with 10% FBS and incubated overnight. For cytotoxicity evaluations in proliferating PBL cultures, non-adherent cells were resuspended at 5 × 10^5 cells/mL in growth medium, containing 2.5 μg/mL PHA (Irvine Scientific). Different concentrations of the test compounds were added, and viability was determined 72 h later by the MTT test. For cytotoxicity evaluations in resting PBL cultures, non-adherent cells were resuspended (5 × 10^5 cells/mL) and treated for 72 h with the test compounds, as described above.

HUVECs [2] = experiment: Cytotoxicity in HUVECs; type: cell-based; conditions: Homo sapiens, HUVEC; primary HUVECs
Procedure: (§2) HUVECs were prepared from human umbilical cord veins, as previously described. The adherent cells were maintained in M200 medium supplemented with LSGS (Low Serum Growth Supplement), containing FBS, hydrocortisone, hEGF, bFGF, heparin, gentamycin/amphotericin (Life Technologies, Monza, Italy). Once confluent, the cells were detached by a trypsin–EDTA solution and used in experiments from the first to sixth passages.

bovine brain tubulin = experiment: Inhibition of tubulin polymerization; type: biochemical; conditions: tubulin at 10 μM; read-out: Tubulin assembly IC50 ± S.D
Procedure: To evaluate the effect of the compounds on tubulin assembly in vitro[41], varying concentrations of compounds were preincubated with 10 μM bovine brain tubulin in 0.8 M monosodium glutamate (pH adjusted to 6.6 with HCl in a 2.0 M stock solution) at 30 °C and then cooled to 0 °C. After addition of 0.4 mM GTP, the mixtures were transferred to 0 °C cuvettes in a recording spectrophotometer and warmed to 30 °C. Tubulin assembly was followed turbidimetrically at 350 nm. […] The capacity of the test compounds to inhibit colchicine binding to tubulin was measured as described, except that the reaction mixtures contained 1 μM tubulin, 5 μM [^3H]colchicine and 1 or 5 μM test compound.

[3] = tested on: panel of seven human tumor cell lines; experiment: Antiproliferative activity, range over panel of seven human tumor cell lines; type: cell-based; conditions: read-out: IC50 values, range over the cell line panel
Procedure: as §1

HeLa cells [4] = experiment: Mitotic cells by p-histone H3/PI flow cytometry; type: cell-based, human; conditions: 100 nM, 24 h, untreated 1.3%
HeLa cells [5] = experiment: Annexin-V/PI apoptosis assay, HeLa; type: cell-based, human; conditions: 60 nM, 24 h
Procedure: (§3) Cell death was determined by flow cytometry of cells double stained with annexin V/FITC and PI. The Coulter Cytomics FC500 (Beckman Coulter) was used to measure the surface exposure of PS on apoptotic cells according to the manufacturer’s instructions (Annexin-V Fluos, Roche Diagnostics).

Jurkat cells [6] = experiment: Annexin-V/PI apoptosis assay, Jurkat; type: cell-based, human; conditions: 60 nM, 24 h
Procedure: as §3

Jurkat cells [7] = experiment: ROS production (H2-DCFDA), Jurkat; type: cell-based, human; conditions: 100 nM, untreated about 4%
HeLa cells [8] = experiment: ROS production (H2-DCFDA), HeLa; type: cell-based, human; conditions: 100 nM, untreated about 4%
[9] = tested on: B16 murine melanoma cells; experiment: MTT assay on B16 murine melanoma cells; type: cell-based; conditions: Mus musculus
[10] = tested on: BL6-B16 murine melanoma cells; experiment: Mouse allograft tumor model (BL6-B16 melanoma); type: in vivo
Text: Animal experiments were approved by our local animal ethics committee (OPBA, Organismo Preposto al Benessere degli Animali, Università degli Studi di Brescia, Italy) and were executed in accordance with national guidelines and regulations. Procedures involving animals and their care conformed with institutional guidelines that comply with national and international laws and policies (EEC Council Directive 86/609, OJ L 358, 12 December 1987) and with “ARRIVE” guidelines (Animals in Research Reporting In Vivo Experiments). Six week old C57BL/6 mice (Charles River, Calco) were injected subcutaneously into the dorsolateral flank with 2.5x10^5 BL6-B16 murine melanoma cells in 200 μL of PBS. When tumors were palpable, animals were treated intraperitoneally every other day with different doses of test compounds dissolved in 50 μL of DMSO. Tumors were measured in two dimensions, and tumor volume was calculated according to the formula V = (D × d^2)/2, where D and d are the major and minor perpendicular tumor diameters, respectively.

HUVECs [11] = experiment: HUVEC scratch wound motility assay; type: cell-based, human; conditions: 100 nM, 6 h and 24 h
Procedure: as §2
The motility assay for HUVECs was based on “scratch” wounding of a confluent monolayer. Briefly, HUVECs (1x10^5) were seeded onto 6-well plates coated with 0.1% collagen type I (BD Biosciences, Italy) in complete medium until a confluent monolayer was formed. The cells were wounded using a pipette tip, and wells were washed with PBS to remove undetached cells. Then, the cells were treated with the test compounds, and, at different times from the scratch, the cells were photographed under a light microscope. At all indicated time points, the wound width was measured in four areas and compared with the initial width.

Structure (SMILES): CCOc1ccc(-c2oc(C)nc2-c2cc(OC)c(OC)c(OC)c2)cc1 [Compound 4i, 4-(3,4,5-Trimethoxyphenyl)-5-(4-ethoxyphenyl)-2-methyloxazole]
- IC50 (HeLa): 0.0009 ± 0.0003 µM
- IC50 (HT-29): 0.0202 ± 0.0088 µM
- IC50 (Jurkat): 0.0041 ± 0.0011 µM
- IC50 (RS 4;11): 0.0021 ± 0.0002 µM
- IC50 [1]: 14.9 ± 3.5 µM
- IC50 (HUVECs [2]): > 100 µM
- IC50 (bovine brain tubulin): 0.56 ± 0.1 µM
- IC50 ([3]; Homo sapiens): 0.0005 to 0.02 µM
- IC50 [3]: 0.0005 to 0.0202 µM
- percentage of mitotic cells (p-histone H3) (HeLa cells [4]): ~46%
- apoptotic cells (annexin-V) (HeLa cells [5]): 70%
- apoptotic cells (annexin-V) (Jurkat cells [6]): 40%
- DCF positive cells (ROS production) (Jurkat cells [7]): 25–30%
- DCF positive cells (ROS production) (HeLa cells [8]): 25–30%
- IC50 [9]: 0.0156 ± 0.0019 µM
- reduction in tumor mass ([10]; 3.0 mg/kg i.p. on days 9, 11 and 14): 34.9%
- reduction in tumor mass ([10]; 7.5 mg/kg i.p. on days 9, 11 and 14): 52.5%
- signs of toxicity in mice ([10]; highest dose (7.5 mg/kg i.p.)): did not show any sign of toxicity
- animal body weight ([10]; highest dose (7.5 mg/kg i.p.), data not shown): did not cause a decrease in animal body weight
- HUVEC cell migration (wound healing) (HUVECs [11]): significantly reduced
